Laboratory results: ChEMBL document CHEMBL3621178, “Antidiabetic effect of novel benzenesulfonylureas as PPAR-γ agonists and their anticancer effect” (Bioorg Med Chem Lett, 2015)
Activity calls are given as the source filed them. The rule behind the calls is not given here.

Assays:
[1] = tested on: 3T3-L1; assay: Increase in PPARgamma mRNA expression in mouse 3T3L1 cells at 10 uM incubated for 24 hrs by RT-PCR method; assay type: functional
[2] = tested on: Rattus norvegicus; assay: Toxicity in STZ-induced diabetic Wistar rat model assessed as increase in body weight at 30 mg/kg, po repeated for 15 days […]; assay type: organism-based; conditions: in vivo, 360 h
[3] = target: T1, Peroxisome proliferator-activated receptor gamma (Homo sapiens) (UniProt P37231); assay: Agonist activity at PPARgamma (unknown origin) expressed in HEK293 cells assessed as receptor transactivation at 10 uM incubated for 24 hrs by luciferase reporter gene assay; assay type: cell-based
T1 sequence (whole entry): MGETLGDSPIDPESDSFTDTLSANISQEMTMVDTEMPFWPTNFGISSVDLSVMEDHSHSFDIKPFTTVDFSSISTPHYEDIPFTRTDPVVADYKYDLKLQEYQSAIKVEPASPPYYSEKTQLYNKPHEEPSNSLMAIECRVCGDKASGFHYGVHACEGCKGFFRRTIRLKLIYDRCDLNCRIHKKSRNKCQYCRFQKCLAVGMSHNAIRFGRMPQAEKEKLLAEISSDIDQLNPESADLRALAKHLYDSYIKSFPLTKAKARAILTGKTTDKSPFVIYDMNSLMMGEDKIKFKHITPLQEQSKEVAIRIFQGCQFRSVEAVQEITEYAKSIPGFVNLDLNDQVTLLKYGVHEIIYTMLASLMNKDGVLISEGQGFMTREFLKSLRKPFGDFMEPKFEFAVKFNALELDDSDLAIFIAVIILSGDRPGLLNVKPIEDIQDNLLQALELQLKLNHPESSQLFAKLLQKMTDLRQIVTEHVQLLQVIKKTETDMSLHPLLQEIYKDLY

[4] = tested on: Rattus norvegicus; assay: Antidiabetic activity in STZ-induced diabetic Wistar rat model assessed as reduction in blood glucose level at 30 mg/kg, po repeated for 15 days by GOD-POD method; assay type: functional, organism-based
[5] = tested on: Rattus norvegicus; assay: Antidiabetic activity in Wistar rat assessed as reduction in blood glucose level at 30 mg/kg, po dosed 30 mins before glucose challenge and measured 30 and 60 mins post glucose challenge by OGTT method; assay type: functional, organism-based
[6] = tested on: Rattus norvegicus; assay: Antidiabetic activity in Wistar rat assessed as reduction in blood glucose level at 36 mg/kg, po dosed 30 mins before glucose challenge and measured 30 and 60 mins post glucose challenge by OGTT method; assay type: functional, organism-based
[7] = tested on: Rattus norvegicus; assay: Antidiabetic activity in STZ-induced diabetic Wistar rat model assessed as reduction in blood glucose level at 36 mg/kg, po repeated for 15 days by GOD-POD method; assay type: functional, organism-based
[8] = tested on: Rattus norvegicus; assay: Toxicity in STZ-induced diabetic Wistar rat model assessed as increase in body weight at 36 mg/kg, po repeated for 15 days […]; assay type: organism-based; conditions: in vivo, 360 h

| Activity [3] | Compound | fold change (FC) [1] | Activity [2] | Activity [4] | Activity [5] | Activity [6] | Activity [7] | Activity [8] |
| --- | --- | --- | --- | --- | --- | --- | --- | --- |
| Active | COc1ccc(Cl)cc1C(=O)NCCc1ccc(S(=O)(=O)NC(=O)NC2CCCCC2)cc1 [GLYBURIDE] | 1.01 | Toxic | Active | Active |  |  |  |
|  | COc1ccc(NC(=S)NS(=O)(=O)c2ccc(N3N=C(c4ccco4)CC3c3ccc(N(C)C)cc3)cc2)cc1 (stereo not given) |  |  |  | Active |  |  |  |
|  | COc1ccc(C2CC(c3ccco3)=NN2c2ccc(S(=O)(=O)NC(=O)Nc3ccccc3C)cc2)cc1 (stereo not given) |  |  |  | Active |  |  |  |
| Active | COc1ccc(C2CC(c3cc4ccccc4oc3=O)=NN2c2ccc(S(=O)(=O)NC(=S)NCc3ccccc3)cc2)cc1 (stereo not given) |  | Non-toxic | Active | Active |  |  |  |
| Active | Cc1ccccc1NC(=O)NS(=O)(=O)c1ccc(N2N=C(c3ccco3)CC2c2ccc(N(C)C)cc2)cc1 (stereo not given) |  | Non-toxic | Active | Active |  |  |  |
| Active | CN(C)c1ccc(C2CC(c3ccco3)=NN2c2ccc(S(=O)(=O)NC(=O)NCc3ccccc3)cc2)cc1 (stereo not given) |  | Non-toxic | Active | Active |  |  |  |
|  | COc1ccc(NC(=O)NS(=O)(=O)c2ccc(N3N=C(c4ccco4)CC3c3ccc(N(C)C)cc3)cc2)cc1 (stereo not given) |  |  |  | Active |  |  |  |
| Active | Cc1ccccc1NC(=O)NS(=O)(=O)c1ccc(N2N=C(c3cc4ccccc4oc3=O)CC2c2ccc(N(C)C)cc2)cc1 (stereo not given) | 1.13 | Non-toxic | Active | Active |  |  |  |
| Active | CN(CCOc1ccc(CC2SC(=O)NC2=O)cc1)c1ccccn1 (stereo not given) [ROSIGLITAZONE] | 1.52 |  |  |  | Active | Active | Toxic |
